Consider five compounds from paper PMC10221320.

Read-outs that look alike come from different tables or passages of the source.

In one series the test system is ASICs. The conditions noted are these: ref [45]; cited from earlier work.
A further series relates to ASIC3. The following applies: cited from earlier work. The source says:
Some non-selective, low-molecular ligands of ASIC channels, acting at micromolar concentrations, are enabled for clinical medicine and veterinary procedure: local anesthetics (lidocaine and tetracaine), nonsteroidal anti-inflammatory drugs (NSAIDs) (ibuprofen, aspirin, and diclofenac), potassium-sparing diuretic amiloride and the antibacterial/antiparasitic drug, diminazene. […] Preclinical and clinical stu ... || Venom-derived toxins affecting ASICs may cause pain or, on the contrary, have analgesic, anti-inflammatory or neuroprotective effects. The first identified peptide agonist of ASIC channels, from the venom of the coral snake Micrurus tener tener, is a complex of MitTxα (Kunitz fold) and MitTxβ (phospholipase A2-like protein) subunits.

Series [1] has as its system CD-1 mice. In words: Acetic-acid-induced writhings (acid-induced muscle pain model). In kind it is in vivo, mouse. The conditions noted are these: 1 mg/kg i.v. The protocol:
(§1) The animal studies were performed under the European Commission’s legislation (Directives 86/609/EEC, 2010/63/EU), the National Standard of the Russian Federation “Good Laboratory Practice” (GOST P 53434-2009, Moscow, Russia), and Committee on Ethics of Laboratory Animal Handling № 05/21, 20 September 2021 and 08/21, 30 December 2021 protocols (PIBOC FEB RAS). Adult female CD-1 mice weighing 25 ± 2 g were subjected to a 12 h light–dark cycle at room temperature and with ad libitum access to food and water. There were seven or eight individuals in each group.
Three groups of animals were treated with peptides at doses of 0.01, 0.1 and 1 mg/kg (intravenously) 15 min before an injection of 300 μL of a 0.7% acetic acid solution. The control animal group received an identical volume of saline. The positive control group received intravenously a dose 1 mg/kg of diclofenac (Hemofarm A.D., Vršac, Serbia), a commercial drug of the NSAID group. Fifteen minutes immediately after acid administration, the number of writhings and the writhing time (time in a spasmodic state) were counted.
In general terms: In writhing tests, fewer writhes than in controls are read as antinociception.

In series [2] the test system is CD-1 mice. The experiment in a line: Hot plate test. In kind it is in vivo, mouse. The following applies: 52 °C. The protocol:
as §1
Thermal analgesia was tested with a Hot Plate Analgesia Meter (IITC Life Science Inc., Woodland Hills, CA, USA). Measurements were carried out 15 min after the intravenous injection of peptides at doses of 0.1 and 1 mg/kg. The control animals received 300 µL of sterile saline. Metamizole (Pharmstandard, Russia) was used as a positive control administrated intraperitoneally at a dose of 500 mg/kg 30 min before testing. Animals were placed individually on the preheated surface of a plate (up to 52 °C), and nociceptive reactions, withdrawal, or licking of the front and hind legs were recorded.
In general terms: In hot-plate and tail-flick tests a longer latency is read as antinociception.

In series [3] the test system is CD-1 mice. The experiment in a line: Carrageenan-induced paw edema. The conditions noted are these: 1 mg/kg. The format is in vivo, mouse. The protocol:
as §1
Three groups of animals were treated with peptides at doses of 0.01, 0.1 and 1 mg/kg (intravenously) 30 min before the induction of inflammation. The control animal group received an identical volume of saline. The positive control group received diclofenac (Hemofarm A.D., Vršac, Serbia) at a dose of 1 mg/kg. The edema was induced by a 20 µL injection of 1.5% solution of λ-carrageenan (Sigma Aldrich, St. Louis, MO, USA) in the hind paw pad. The resulting edema was measured after 1, 2, 4 and 24 h using a plethysmometer (Ugo Basile, Gemonio (VA), Italy). The anti-inflammatory threshold was estimated as a decrease in the paw volume and volume growth index (%), calculated using the formula: Volume Growth Index (%) = [(VC − Vi)/Vi] × 100, (1), where VC is the volume of the paw after the introduction of carrageenan and Vi is the volume of the paw before the introduction of carrageenan.
For orientation: The carrageenan paw model is a standard test of acute inflammation.

In series [4] the test system is ASIC1a, ASIC1b, ASIC2a and ASIC3 channels. The conditions noted are these: ref [7],[13]; read-out: IC50, inhibition of ASIC1a, ASIC1b, ASIC2a and ASIC3 channels; cited from earlier work. The text has this: Some non-selective, low-molecular ligands of ASIC channels, acting at micromolar concentrations, are enabled for clinical medicine and veterinary procedure: local anesthetics (lidocaine and tetracaine), nonsteroidal anti-inflammatory drugs (NSAIDs) (ibuprofen, aspirin, and diclofenac), potassium-sparing diuretic amiloride and the antibacterial/antiparasitic drug, diminazene. […] Preclinical and clinical stu ...

For series [5] the following is noted: ref [34]; cited from earlier work.
A further series deals with ASIC2a. The conditions noted are these: ref [36]; cited from earlier work.
For series [6] the following is noted: 1 mg/kg intramuscularly; ref [34]; cited from earlier work. The text has this:
(§2) Contradictory results concerning the involvement of ASIC1a channels in the antidepressant activity and the in vivo effects of ASIC1a inhibitors, namely tarantula toxin, PcTx1, have been published earlier. Thus, in a number of experiments, it was shown that ASI ...

The test system of another series is hERG channels. On the set-up: method as in PMID 29134638. The following applies: ref [36]; cited from earlier work.
The conditions of series [7]: cited from earlier work. The source says: (§3) Venom-derived toxins affecting ASICs may cause pain or, on the contrary, have analgesic, anti-inflammatory or neuroprotective effects. The first identified peptide agonist of ASIC channels, from the venom of the coral snake Micrurus tener tener, is a complex of MitTxα (Kunitz fold) and MitTxβ (phospholipase A2-like protein) subunits.

The subject of the next series is ASIC1b. The following applies: ref [36]; cited from earlier work.
For the next series, the system named is NaV1.8. Details: method as in PMID 29134638. The following applies: ref [36]; cited from earlier work.
The next series relates to rats. The following applies: ref [53]; cited from earlier work.
Source text: as §2

In a further series the test system is ASIC1a. The following applies: ref [20]; cited from earlier work.
Source text: as §3

For series [8] the following is noted: eight hours after a stroke; ref [18],[19]; cited from earlier work.

As a reminder, the IC50 is the midpoint of a concentration-inhibition curve.

Take `O=C(O)Cc1ccccc1Nc1c(Cl)cccc1Cl` [Diclofenac]: the “inflammation-induced expression of ASICs” value in the series on ASICs is given as “decreases the inflammation-induced expression of ASICs”. Besides, in the series with ASIC3 (ref [45], read-out: IC50, sustained current component of ASIC3), the IC50 was 92000 ± 19000 nM. In addition, the “effect on writhings, positive control” value in the series on CD-1 mice [1] is recorded as “reduced the number of writhings”. Besides, in the series with CD-1 mice [2] (peptides 0.1 and 1 mg/kg i.v.), the “analgesic effect in hot plate test” value is recorded as “did not affect the pain sensitivity in this test”. Moreover, in the series with CD-1 mice [3], the “anti-inflammatory effect, positive control” value was “reduced inflammation more rapidly (1–24 h range)”.

In the case of `Cc1c(N(C)CS(=O)(=O)O)c(=O)n(-c2ccccc2)n1C` [Metamizole sodium], the “increase in latent time of licking both front and hind paws” value in the series with CD-1 mice [2] (500 mg/kg i.p. 30 min before testing) was “more than 1.5 times”.

With `N=C(N)NC(=O)c1nc(Cl)c(N)nc1N` [amiloride], in [4], the IC50 was 5000 to 100000 nM.

As for APETx2, the antihyperalgesia entry in [5] is given as “induces antihyperalgesia in an acid-induced muscle pain model”. For the same compound, in the series on ASIC2a, the “effect on ASIC2a” value was “potentiation”. For the same compound, in series [6], the “locomotion and CNS-mediated behavior” value is “did not impair locomotion and the CNS-mediated behavior in the open field test”. Also, in the series with hERG channels, the hERG inhibition entry is reported as “ability to inhibit hERG channels”. Also, in [7] (ref [34]), the effect on edema entry is listed as “partially reduces edema”. Further, in the series with ASIC1b, the “effect on ASIC1b” value is listed as “potentiation”. In the series on ASIC3 (ref [20], read-out: IC50, ASIC3), the IC50 was 37 to 63 nM. In the series on NaV1.8, the NaV1.8 inhibition entry is reported as “inhibition”.

On to “PcTx1: ICK-peptide from the tarantula Psalmopoeus cambridgei”, for which, in the series with rats, the anxiety levels result is listed as “increases anxiety levels in rats”. Also, the IC50 with ASIC1a was 0.3 to 3.7 nM. Moreover, in series [7] (ref [23]), the antinociceptive effect entry was “strong antinociceptive effect in the acute and neuropathic pain models”. Besides, in series [8], the neuroprotection after stroke entry is reported as “ineffective”.
